Read-outs that look alike come from different tables or passages of the source.
How the values were obtained:
[1] = pKa / pKB by potentiometric acid-base titration and formation constant log(KS); details: calculated from pKA of acid and pKB of base
In short: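 Potentiometric acid-base titration used 0.1 M NaOH as titrant for pKA of acids. For ester hydrochlorides, aqueous HCl was added first, followed by dropwise titration with 5 mM titrant.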

[2] = 25 °C; cited from earlier work
Escherichia coli = assay: Disc diffusion antimicrobial susceptibility test, Escherichia coli; format: cell-based; set-up: key to Inhibition diameter: -: no growth of the organism
Procedure: (§1) The plates were incubated for 24 h at 37 °C.

[3] = cited from earlier work; for TDTGmax, maximum decomposition temperature: DTG
[4] = n-octanol-water partition coefficient (logP), shake flask method; format: physicochemical; details: n-octanol-water, shake flask; read-out: LogP
Micrococcus Luteus = assay: Disc diffusion antimicrobial susceptibility test, Micrococcus luteus; format: cell-based; set-up: key to Inhibition diameter: -: no growth of the organism
[5] = test system: Staphylococcus epidermidis; assay: Disc diffusion antimicrobial susceptibility test, Staphylococcus epidermidis; format: cell-based; set-up: key to Inhibition diameter: -: no growth of the organism
Procedure: as §1

[6] = Solubility in water and phosphate buffers; details: for Solubility in Water, as active substance: deionized water, 25 °C; for Solubility in Water, as active substance / Solubility in Phosphate Buffer pH = 5.4, as active substance / Solubility in Phosphate Buffer pH = 7.4, as active substance: AS = unmodified acid; for Solubility in Phosphate Buffer pH = 5.4, as active substance: pH 5.4, 25 °C; for Solubility in Phosphate Buffer pH = 7.4, as active substance: pH 7.4, 25 °C
Description: This study aims to compare the influence of amino acid structure on the physicochemical properties of NSAID salts with the isopropyl ester of amino acids.

[7] = Solubility in organic solvents (modified Vogel's method); details: 25 °C
[8] = Thermogravimetric analysis (thermal stability); details: air atmosphere, 10 °C min−1
In short: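 Samples of 5–8 mg heated in Al2O3 crucibles under air (25 cm3 min−1) with nitrogen flow (10 cm3 min−1). Start of thermal degradation taken as the onset of the TG curve in the first decomposition phase.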

[9] = cited from earlier work
[10] = Escherichia coli, 24 h, solution transferred to disc 400 mg cm^−3, read-out: Inhibition diameter
[11] = Escherichia coli, 24 h, solution transferred to disc 600 mg cm^−3, read-out: Inhibition diameter
[12] = solution transferred to disc 25 mg cm^−3
[13] = Micrococcus luteus, 24 h, solution transferred to disc 600 mg cm^−3, read-out: Inhibition diameter
[14] = Micrococcus luteus, 24 h, solution transferred to disc 800 mg cm^−3, read-out: Inhibition diameter
[15] = solution transferred to disc 50 mg cm^−3
[16] = solution transferred to disc 100 mg cm^−3
[17] = solution transferred to disc 200 mg cm^−3
[18] = solution transferred to disc 400 mg cm^−3
[19] = solution transferred to disc 600 mg cm^−3
[20] = solution transferred to disc 800 mg cm^−3
[21] = solution transferred to disc 1000 mg cm^−3

In the case of CC(C)OC(=O)C(N)C(C)C.O=C(O)c1ccccc1O [[L-ValOiPr][SA]], the “Log(KS) formation constant” value [1] is given as 7.03, the “Solubility in Chloroform (39.1)” value [2] is given as “○ [49] (soluble >100 mg cm^−3)” and the “Solubility in DMSO (45.1)” value [2] is given as “○ [49] (soluble >100 mg cm^−3)”. The “Solubility in Dichloromethane (40.7)” value [2] was “○ [49] (soluble >100 mg cm^−3)”, the “Solubility in Diethyl Ether (34.5)” value [2] was “◐ [49] (partially soluble 33–100 mg cm^−3)” and the “Solubility in Ethanol (59.1)” value [2] was “○ [49] (soluble >100 mg cm^−3)”. The “Solubility in Ethyl Acetate (38.1)” value [2] was “◐ [49] (partially soluble 33–100 mg cm^−3)”, the “Solubility in Hexane (31.0)” value [2] was “● [49] (insoluble <33 mg cm^−3)” and the “Solubility in Toluene (33.9)” value [2] was “○ [49] (soluble >100 mg cm^−3)”. For the same compound, the zone of inhibition at 50000 µg/mL (Escherichia coli; Escherichia coli, 24 h, solution transferred to disc 50 mg cm^−3, read-out: Inhibition diameter) was 6.2 ± 0.1 mm, the zone of inhibition at 100000 µg/mL (Escherichia coli; Escherichia coli, 24 h, solution transferred to disc 100 mg cm^−3, read-out: Inhibition diameter) was 6.3 ± 0.2 mm and the zone of inhibition at 200000 µg/mL (Escherichia coli; Escherichia coli, 24 h, solution transferred to disc 200 mg cm^−3, read-out: Inhibition diameter) was 7.5 ± 0.1 mm. For the same compound, the zone of inhibition at 400000 µg/mL (Escherichia coli; [10]) was 8.9 ± 0.4 mm, the zone of inhibition at 600000 µg/mL (Escherichia coli; [11]) was 12.6 ± 0.3 mm and the Inhibition diameter (Escherichia coli; [12]) was “-”. For the same compound, the “TDTGmax, maximum decomposition temperature” value [3] was 197.6 [49] °C, the “TTGonset, the onset of the thermal degradation” value ([3]; TG) was 124.6 [49] °C and the logP [4] was 1.61 ± 0.057. The zone of inhibition at 600000 µg/mL (Micrococcus Luteus; [13]) was 8.6 ± 0.3 mm, the zone of inhibition at 800000 µg/mL (Micrococcus Luteus; [14]) was 15.9 ± 1.2 mm and the Inhibition diameter (Micrococcus Luteus; [12]) was “-”. The Inhibition diameter (Micrococcus Luteus; [15]) was “-”, the Inhibition diameter (Micrococcus Luteus; [16]) was “-” and the Inhibition diameter (Micrococcus Luteus; [17]) was “-”. For the same compound, the Inhibition diameter (Micrococcus Luteus; [18]) was “-”, the zone of inhibition at 600000 µg/mL ([5]; Staphylococcus epidermidis, 24 h, solution transferred to disc 600 mg cm^−3, read-out: Inhibition diameter) was 6.7 ± 0.3 mm and the zone of inhibition at 800000 µg/mL ([5]; Staphylococcus epidermidis, 24 h, solution transferred to disc 800 mg cm^−3, read-out: Inhibition diameter) was 8.4 ± 0.3 mm. The Inhibition diameter [5, 12] was “-”, the Inhibition diameter [5, 15] was “-” and the Inhibition diameter [5, 16] was “-”. The Inhibition diameter [5, 17] was “-”, the Inhibition diameter [5, 18] was “-” and the “Solubility in Water, as active substance” value [6] was 7.761 ± 2.044 gAS dm^−3. For the same compound, the “Solubility in Phosphate Buffer pH = 5.4, as active substance” value [6] was 5.259 ± 0.014 gAS dm^−3, the solubility thermodynamic ([6]; pH 5.4, aqueous buffer) was 11.32 ± 0.014 mg/mL and the “Solubility in Phosphate Buffer pH = 7.4, as active substance” value [6] was 8.702 ± 0.027 gAS dm^−3. The solubility thermodynamic ([6]; pH 7.4, aqueous buffer) was 18.73 ± 0.027 mg/mL and the solubility thermodynamic ([6]; water) was 16.7 ± 2.04 mg/mL.
In the case of CC(C)OC(=O)[C@@H](N)[C@@H](C)O.O=C(O)c1ccccc1O [[L-ThrOiPr][SA], L-threonine isopropyl ester salicylate], the “Log(KS) formation constant” value [1] is reported as 7.94, the zone of inhibition at 400000 µg/mL (Escherichia coli; [10]) is reported as 7.3 ± 0.2 mm and the zone of inhibition at 600000 µg/mL (Escherichia coli; [11]) is reported as 9.3 ± 0.4 mm. The Inhibition diameter (Escherichia coli; [12]) was “-”, the Inhibition diameter (Escherichia coli; [15]) was “-” and the Inhibition diameter (Escherichia coli; [16]) was “-”. The Inhibition diameter (Escherichia coli; [17]) was “-”, the logP [4] was 1.55 ± 0.021 and the “concentrations at which the antimicrobial effect was observed” value (Micrococcus Luteus; M. Luteus) was “in all tested concentration ranges”. It also gave a zone of inhibition at 25000 µg/mL (Micrococcus Luteus; Micrococcus luteus, 24 h, solution transferred to disc 25 mg cm^−3, read-out: Inhibition diameter) of 6.3 ± 0.1 mm, a zone of inhibition at 50000 µg/mL (Micrococcus Luteus; Micrococcus luteus, 24 h, solution transferred to disc 50 mg cm^−3, read-out: Inhibition diameter) of 6.6 ± 0.2 mm and a zone of inhibition at 100000 µg/mL (Micrococcus Luteus; Micrococcus luteus, 24 h, solution transferred to disc 100 mg cm^−3, read-out: Inhibition diameter) of 7 ± 0.1 mm. For the same compound, the zone of inhibition at 200000 µg/mL (Micrococcus Luteus; Micrococcus luteus, 24 h, solution transferred to disc 200 mg cm^−3, read-out: Inhibition diameter) was 7.6 ± 0.2 mm, the zone of inhibition at 400000 µg/mL (Micrococcus Luteus; Micrococcus luteus, 24 h, solution transferred to disc 400 mg cm^−3, read-out: Inhibition diameter) was 8.1 ± 0.1 mm and the zone of inhibition at 600000 µg/mL (Micrococcus Luteus; [13]) was 8.7 ± 0.5 mm. For the same compound, the zone of inhibition at 800000 µg/mL (Micrococcus Luteus; [14]) was 10.2 ± 0.7 mm, the “Solubility in Chloroform (39.1)” value [7] was “○ (soluble >100 mg cm^−3)” and the “Solubility in DMSO (45.1)” value [7] was “○ (soluble >100 mg cm^−3)”. For the same compound, the “Solubility in Dichloromethane (40.7)” value [7] was “○ (soluble >100 mg cm^−3)”, the “Solubility in Diethyl Ether (34.5)” value [7] was “● (insoluble <33 mg cm^−3)” and the “Solubility in Ethanol (59.1)” value [7] was “○ (soluble >100 mg cm^−3)”. For the same compound, the “Solubility in Ethyl Acetate (38.1)” value [7] was “○ (soluble >100 mg cm^−3)”, the “Solubility in Hexane (31.0)” value [7] was “● (insoluble <33 mg cm^−3)” and the “Solubility in Toluene (33.9)” value [7] was “● (insoluble <33 mg cm^−3)”. For the same compound, the Inhibition diameter [5, 12] was “-”, the Inhibition diameter [5, 15] was “-” and the Inhibition diameter [5, 16] was “-”. For the same compound, the Inhibition diameter [5, 17] was “-”, the Inhibition diameter [5, 18] was “-” and the Inhibition diameter [5, 19] was “-”. The Inhibition diameter [5, 20] was “-”, the Inhibition diameter [5, 21] was “-” and the “TDTGmax, maximum decomposition temperature” value ([8]; DTG) was 191.4 °C. The “TTGonset, the onset of the thermal degradation” value ([8]; TG) was 127.2 °C, the “Solubility in Water, as active substance” value [6] was 17.925 ± 0.241 gAS dm^−3 and the “Solubility in Phosphate Buffer pH = 5.4, as active substance” value [6] was 13.978 ± 0.018 gAS dm^−3. For the same compound, the solubility thermodynamic ([6]; pH 5.4, aqueous buffer) was 30.189 ± 0.018 mg/mL, the “Solubility in Phosphate Buffer pH = 7.4, as active substance” value [6] was 18.777 ± 0.125 gAS dm^−3 and the solubility thermodynamic ([6]; pH 7.4, aqueous buffer) was 40.76 ± 0.125 mg/mL. The solubility thermodynamic ([6]; water) was 38.71 ± 0.241 mg/mL.
For CC(C)Cc1ccc(C(C)C(=O)O)cc1.CC(C)OC(=O)C(N)C(C)C (mixture of isomers) [[L-ValOiPr][IBU]], the “Log(KS) formation constant” value [1] was 5.56, the Inhibition diameter (Escherichia coli; [12]) was “-” and the Inhibition diameter (Escherichia coli; [15]) was “-”. The Inhibition diameter (Escherichia coli; [16]) was “-”, the Inhibition diameter (Escherichia coli; [17]) was 6.2 ± 0.1 mm and the Inhibition diameter (Escherichia coli; [18]) was 6.3 ± 0.2 mm. The Inhibition diameter (Escherichia coli; [19]) was 6.8 ± 0.5 mm, the Inhibition diameter (Escherichia coli; [21]) was 7.1 ± 0.3 mm and the “TDTGmax, maximum decomposition temperature” value [3] was 215.5 [50] °C. The Inhibition diameter (Micrococcus Luteus; [12]) was 8.4 ± 0.3 mm, the Inhibition diameter (Micrococcus Luteus; [15]) was 9.1 ± 0.2 mm and the Inhibition diameter (Micrococcus Luteus; [16]) was 9.6 ± 0.1 mm. The Inhibition diameter (Micrococcus Luteus; [17]) was 10.5 ± 0.2 mm, the Inhibition diameter (Micrococcus Luteus; [18]) was 11.2 ± 0.2 mm and the Inhibition diameter (Micrococcus Luteus; [19]) was 11.7 ± 0.2 mm. For the same compound, the Inhibition diameter (Micrococcus Luteus; [20]) was 12.6 ± 0.3 mm, the Inhibition diameter (Micrococcus Luteus; [21]) was 13.2 ± 0.2 mm and the “Solubility in Phosphate Buffer pH = 5.4” value ([9]; pH 5.4) was 2.351 ± 0.027 [45] g dm^−3. For the same compound, the “Solubility in Phosphate Buffer pH = 5.4, as active substance” value ([9]; pH 5.4) was 1.326 ± 0.027 [45] gAS dm^−3, the “Solubility in Phosphate Buffer pH = 7.4” value ([9]; pH 7.4) was 4.998 ± 0.018 [45] g dm^−3 and the “Solubility in Phosphate Buffer pH = 7.4, as active substance” value ([9]; pH 7.4) was 2.821 ± 0.018 [45] gAS dm^−3. It also gave an Inhibition diameter [5, 12] of 7.3 ± 0.2 mm, an Inhibition diameter [5, 15] of 10.4 ± 0.1 mm and an Inhibition diameter [5, 16] of 12.8 ± 0.2 mm. It also gave an Inhibition diameter [5, 17] of 13.2 ± 0.2 mm, an Inhibition diameter [5, 18] of 16.3 ± 0.3 mm and an Inhibition diameter [5, 19] of 17.7 ± 0.3 mm. It also gave an Inhibition diameter [5, 20] of 18.4 ± 0.2 mm and an Inhibition diameter [5, 21] of 18.9 ± 0.3 mm.
